Literature values in publication PMC10145264, “Synthesis and Biological Properties of EGFR-Targeted Photosensitizer Based on Cationic Porphyrin” (Pharmaceutics, 2023).

Key:
[1] = design: method as in PMID 24063545; conditions: standard value
[2] = design: method as in doi:10.1016/j.chemphys.2006.07.040, doi:10.1007/BF03356111, doi:10.1016/j.jphotochemrev.2020.100401; conditions: standard value

C1=Cc2nc1c(-c1ccccc1)c1ccc([n-]1)c(-c1ccccc1)c1nc(c(-c3ccccc3)c3ccc([n-]3)c2-c2ccccc2)C=C1.[Zn+2] [ZnTPP, zinc tetraphenylporphyrin]
singlet oxygen quantum yield (ΦΔ) [1]: 0.74 | fluorescence quantum yield (ΦF) [2]: 0.033
